Structures can show the parent of a compound that is named as a salt. Blank lines part the entries; values can stand above or below the compound they belong to.
Experiments:
[1] = metabolic conversion in rat liver microsomes; assay type: in vitro ADME; settings: 40 μM compound, 37° C., pH 7.4, RP-HPLC-MS/MS
Method: In a further experiment the metabolic conversion of compounds (Ia) and (IIa) was evaluated according to the following procedure:
The test compounds were incubated in the reaction mixture given below with rat liver microsomes (Corning). For this purpose the reaction mixture (components 1-5, see below) was preincubated for 10 minutes at 37° C. The reaction was started with the addition of 10 μl of the test compound followed by incubation at 37° C. for 0-300 minutes, respectively. At each time point, 50 μl of the mixture were removed, added to 250 μl of ice cold acetonitrile and vortexed immediately. After centrifugation, the acetonitrile solution was analyzed by RP-HPLC-MS/MS system.
1. Magnesiumchloride hexahydrate 50 μl
2. Glucose-6-phosphate 50 μl
4. Glucose-6-phosphate-dehydrogenase: 10 μl
6. Compounds: 40 μM (10 μl of 4 mM solution in ethanol)
Total volume: 1000 μl in 0.1 M Trizma-buffer (pH 7.4 at 37° C.)
Acquity UPLC®-Quattro Premier XE (MS) system by Waters
Column: BEH C18, 2.1×50 mm, 1.2 μm pore diameter, Waters
Solvent A: H2O, NH4-formiate 2 mM+0.1% formic acid
Solvent B: Methanol, NH4-formiate 2 mM+0.1% formic acid
Flow regime: from 70% solvent A/30% solvent B to 100% Solvent A in 2.4 minutes, then 70% solvent A/30% solvent B for 0.8 minutes.

[2] = biological target: GSK-3β (Homo sapiens, UniProt P49841); assay: KinaseProfiler protein kinase inhibition, GSK-3β; assay type: biochemical
Sequence of GSK-3β (P49841 whole entry): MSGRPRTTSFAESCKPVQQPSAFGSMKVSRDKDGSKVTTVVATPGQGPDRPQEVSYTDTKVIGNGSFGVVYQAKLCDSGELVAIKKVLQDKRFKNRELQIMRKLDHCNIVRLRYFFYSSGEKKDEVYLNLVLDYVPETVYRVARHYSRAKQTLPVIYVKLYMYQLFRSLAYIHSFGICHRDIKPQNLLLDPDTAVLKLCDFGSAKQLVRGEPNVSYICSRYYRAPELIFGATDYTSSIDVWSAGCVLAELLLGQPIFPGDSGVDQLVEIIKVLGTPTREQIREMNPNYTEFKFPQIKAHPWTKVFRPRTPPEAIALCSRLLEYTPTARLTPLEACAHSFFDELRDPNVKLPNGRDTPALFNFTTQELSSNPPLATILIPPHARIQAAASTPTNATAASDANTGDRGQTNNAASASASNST
Method: (§1) The effect of test compounds on the activity of the protein kinases GSK-3β, VEGFR-2 and FLT-3 was evaluated based on half maximal inhibitory concentration (IC50) values determined by Eurofins Pharma Discovery Services UK Limited, Gemini Crescent, Dundee Technology Park, Dundee, DD2 1SW (KinaseProfiler™). Detailed information can be found at: http://www.eurofins.com/pharma-services/pharma-discovery-services/services/in-vitro-pharmacology/kinases/biochemical.aspx. The assays are also described in Biochem. J. (2013) 451, 313-328.

[3] = biological target: T1, FLT-3 (Homo sapiens, UniProt P36888); assay: KinaseProfiler protein kinase inhibition, FLT-3; assay type: biochemical
T1 construct: purchased Eurofins Pharma Discovery Services UK Limited (KinaseProfiler)
T1 sequence (P36888 27-993): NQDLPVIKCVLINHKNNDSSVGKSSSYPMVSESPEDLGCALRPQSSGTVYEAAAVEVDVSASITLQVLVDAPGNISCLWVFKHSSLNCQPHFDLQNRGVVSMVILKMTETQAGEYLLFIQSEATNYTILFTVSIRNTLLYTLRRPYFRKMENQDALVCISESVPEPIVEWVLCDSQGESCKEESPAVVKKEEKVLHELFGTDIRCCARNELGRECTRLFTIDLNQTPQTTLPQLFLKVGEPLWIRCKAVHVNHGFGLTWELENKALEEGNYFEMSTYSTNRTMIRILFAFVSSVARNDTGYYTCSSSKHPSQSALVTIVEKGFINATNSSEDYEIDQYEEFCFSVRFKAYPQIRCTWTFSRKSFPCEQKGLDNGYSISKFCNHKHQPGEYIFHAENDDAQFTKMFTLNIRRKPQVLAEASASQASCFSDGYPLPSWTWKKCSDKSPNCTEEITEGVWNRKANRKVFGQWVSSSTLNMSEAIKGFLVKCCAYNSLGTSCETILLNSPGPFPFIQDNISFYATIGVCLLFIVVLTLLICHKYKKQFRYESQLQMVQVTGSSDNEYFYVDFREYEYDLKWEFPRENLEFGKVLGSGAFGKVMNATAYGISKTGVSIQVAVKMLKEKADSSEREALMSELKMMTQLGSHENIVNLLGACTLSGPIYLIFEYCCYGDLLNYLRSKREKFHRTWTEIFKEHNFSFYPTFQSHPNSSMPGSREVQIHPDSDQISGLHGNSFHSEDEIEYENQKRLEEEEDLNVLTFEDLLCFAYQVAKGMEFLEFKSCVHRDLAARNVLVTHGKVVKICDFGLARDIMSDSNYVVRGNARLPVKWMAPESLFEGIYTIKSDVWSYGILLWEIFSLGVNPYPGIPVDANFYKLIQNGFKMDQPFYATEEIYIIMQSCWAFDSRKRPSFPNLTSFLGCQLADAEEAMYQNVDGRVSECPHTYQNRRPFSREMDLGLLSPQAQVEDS
Method: as §1

[4] = biological target: T2, VEGFR-2 (Homo sapiens, UniProt P35968); assay: KinaseProfiler protein kinase inhibition, VEGFR-2; assay type: biochemical
T2 construct: purchased Eurofins Pharma Discovery Services UK Limited (KinaseProfiler)
T2 sequence (P35968 20-1356): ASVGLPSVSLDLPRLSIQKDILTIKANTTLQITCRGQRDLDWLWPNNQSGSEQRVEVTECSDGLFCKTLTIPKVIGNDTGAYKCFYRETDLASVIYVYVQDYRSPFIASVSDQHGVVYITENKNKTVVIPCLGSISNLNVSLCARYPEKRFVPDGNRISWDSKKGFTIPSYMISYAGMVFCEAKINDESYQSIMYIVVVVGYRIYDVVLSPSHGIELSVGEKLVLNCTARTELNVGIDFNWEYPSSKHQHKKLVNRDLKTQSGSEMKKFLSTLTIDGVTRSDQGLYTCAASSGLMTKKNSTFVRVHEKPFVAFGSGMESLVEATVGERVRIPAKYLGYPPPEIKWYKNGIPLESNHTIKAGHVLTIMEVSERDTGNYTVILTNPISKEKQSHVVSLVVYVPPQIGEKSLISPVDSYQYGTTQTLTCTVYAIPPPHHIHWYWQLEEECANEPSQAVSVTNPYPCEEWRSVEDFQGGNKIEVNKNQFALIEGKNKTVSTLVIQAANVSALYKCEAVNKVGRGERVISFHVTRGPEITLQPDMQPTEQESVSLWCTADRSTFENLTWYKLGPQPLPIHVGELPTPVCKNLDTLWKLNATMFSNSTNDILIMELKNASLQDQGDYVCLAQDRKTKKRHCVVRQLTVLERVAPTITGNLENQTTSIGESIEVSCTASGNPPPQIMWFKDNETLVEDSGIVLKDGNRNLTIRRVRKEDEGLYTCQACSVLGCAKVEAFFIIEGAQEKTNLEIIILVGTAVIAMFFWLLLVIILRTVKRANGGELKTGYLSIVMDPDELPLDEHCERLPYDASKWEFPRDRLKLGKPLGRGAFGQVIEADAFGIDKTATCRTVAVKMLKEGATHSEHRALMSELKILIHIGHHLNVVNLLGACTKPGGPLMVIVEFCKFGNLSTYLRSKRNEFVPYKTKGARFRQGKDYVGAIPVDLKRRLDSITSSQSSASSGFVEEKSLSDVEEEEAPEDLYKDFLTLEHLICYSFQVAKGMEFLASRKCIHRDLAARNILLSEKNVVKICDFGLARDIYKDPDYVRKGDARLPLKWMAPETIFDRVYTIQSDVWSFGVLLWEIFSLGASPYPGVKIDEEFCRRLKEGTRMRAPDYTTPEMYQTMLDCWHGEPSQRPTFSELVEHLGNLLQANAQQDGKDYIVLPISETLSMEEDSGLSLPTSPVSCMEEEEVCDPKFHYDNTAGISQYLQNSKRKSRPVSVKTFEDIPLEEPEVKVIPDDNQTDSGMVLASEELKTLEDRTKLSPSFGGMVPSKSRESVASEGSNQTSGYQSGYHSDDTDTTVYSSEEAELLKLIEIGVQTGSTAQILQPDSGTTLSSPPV
From the text: Detailed information can be found at: http://www.eurofins.com/pharma-services/pharma-discovery-services/services/in-vitro-pharmacology/kinases/biochemical.aspx. The assays are also described in Biochem. J. (2013) 451, 313-328.

[5] = test system: HT-29 human colon adenocarcinoma cells; assay: MTT assay, antiproliferative activity; assay type: cell-based; settings: HT-29 cells, 3 days exposure, FIG. 3
From the text: Each experiment was done in triplicate.

IC50 [3]: 66 nM | IC50 [4]: 79 nM
SMILES: COc1cc(C2=C(c3cn(CCO)c4ccc(F)cc34)C(=O)NC2=O)cc(OC)c1OC [Ib, 3-(5-fluoro-1-(2-hydroxyethyl)-1H-indol-3-yl)-4-(3,4,5-trimethoxyphenyl)-maleimide]

IC50 [3]: 84 nM | IC50 [4]: 168 nM
SMILES: COc1cc(C2=C(c3cn(CCCO)c4ccc(F)cc34)C(=O)NC2=O)cc(OC)c1OC [If, 3-(5-fluoro-1-(3-hydroxypropyl)-1H-indol-3-yl)-4-(3,4,5-trimethoxyphenyl)-maleimide]

The next lines start with the compound.

SMILES: COc1cc(C2=C(c3cn(CCOC(=O)C(N)CC(C)C)c4ccc(F)cc34)C(=O)NC2=O)cc(OC)c1OC (stereo not shown) (as salt: salt) [Ia, 2-(3-(2,5-Dioxo-4-(3,4,5-trimethoxyphenyl)-2,5-dihydro-1H-pyrrol-3-yl)-5-fluoro-1H-indol-1-yl)-ethyl-2-amino-4-methylpentanoate]
melting point: 180 °C

SMILES: COc1cc(C2=C(c3cn(CCOC(=O)C(N)CC(C)C)c4ccccc34)C(=O)NC2=O)cc(OC)c1OC (stereo not shown) [IIa, reference compound]
time until largely metabolized [1]: 2 h

SMILES: COc1cc(C2=C(c3cn(CCCO)c4ccccc34)C(=O)NC2=O)cc(OC)c1OC [IIe]
IC50 [2]: 2 nM

SMILES: COc1cc(C2=C(c3cn(CCOC(=O)C(N)CC(C)C)c4ccc(F)cc34)C(=O)NC2=O)cc(OC)c1OC (stereo not shown) [Ia, 2-(3-(2,5-Dioxo-4-(3,4,5-trimethoxyphenyl)-2,5-dihydro-1H-pyrrol-3-yl)-5-fluoro-1H-indol-1-yl)-ethyl-2-amino-4-methylpentanoate]
time until largely metabolized [1]: 1 h

SMILES: COc1cc(C2=C(c3cn(CCO)c4ccc(F)cc34)C(=O)NC2=O)cc(OC)c1O [Ic, 3-(5-fluoro-1-(2-hydroxyethyl)-1H-indol-3-yl)-4-(4-hydroxy-3,5-dimethoxyphenyl)-maleimide]
melting point: 233 °C

SMILES: COc1cc(C2=C(c3c[nH]c4ccc(F)cc34)C(=O)NC2=O)cc(OC)c1O [Id, 3-(5-fluoro-1H-indol-3-yl)-4-(4-hydroxy-3,5-dimethoxyphenyl)-maleimide]
antiproliferative activity (viability) [5]: higher activity as compared to (IId)

From patent US11045449B2, “3-(5-fluoroindolyl)-4-arylmaleimide compounds and their use in tumor treatment” (JOHANNES GUTENBERG-UNIVERSITÄT MAINZ, priority 2015, dated 2021)
